Measured values published in ChEMBL document CHEMBL3638843, “Urokinase inhibitors, production and use thereof” (2013).

Key:
Serine protease 1 = Serine protease 1 (Rattus norvegicus, UniProt P00762); assay: Enzyme Assay: Inhibition constant of the compound against Trypsin
Prothrombin = Prothrombin (Rattus norvegicus, UniProt P18292); assay: Enzyme Assay: Inhibition constant of the compound against Thrombin
Plasminogen = Plasminogen (Rattus norvegicus, UniProt Q01177); assay: Enzyme Assay: Inhibition constant of the compound against Plasmin
Plasminogen, sequence (Q01177 97-581 limits assumed): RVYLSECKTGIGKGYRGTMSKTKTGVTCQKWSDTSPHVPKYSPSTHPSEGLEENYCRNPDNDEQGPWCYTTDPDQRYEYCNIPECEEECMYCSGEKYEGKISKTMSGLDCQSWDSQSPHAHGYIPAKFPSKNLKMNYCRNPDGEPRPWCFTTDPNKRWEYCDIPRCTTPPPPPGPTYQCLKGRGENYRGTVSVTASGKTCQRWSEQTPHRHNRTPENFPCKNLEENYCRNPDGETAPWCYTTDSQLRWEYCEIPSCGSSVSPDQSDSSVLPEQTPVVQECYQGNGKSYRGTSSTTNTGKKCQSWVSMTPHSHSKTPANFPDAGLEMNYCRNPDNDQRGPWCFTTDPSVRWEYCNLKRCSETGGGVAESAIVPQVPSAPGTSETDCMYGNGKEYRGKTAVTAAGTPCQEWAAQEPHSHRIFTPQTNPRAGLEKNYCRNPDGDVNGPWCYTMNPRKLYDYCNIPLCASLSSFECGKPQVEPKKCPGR
Plasminogen, sequence (Q01177 582-812 limits assumed): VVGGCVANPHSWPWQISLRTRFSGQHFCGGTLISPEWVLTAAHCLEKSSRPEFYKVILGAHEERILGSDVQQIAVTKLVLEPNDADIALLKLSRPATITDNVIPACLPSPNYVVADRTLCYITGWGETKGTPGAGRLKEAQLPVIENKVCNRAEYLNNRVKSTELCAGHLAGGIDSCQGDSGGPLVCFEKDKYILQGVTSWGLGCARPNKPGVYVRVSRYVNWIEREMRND

Serine protease 1, sequence (P00762 whole entry): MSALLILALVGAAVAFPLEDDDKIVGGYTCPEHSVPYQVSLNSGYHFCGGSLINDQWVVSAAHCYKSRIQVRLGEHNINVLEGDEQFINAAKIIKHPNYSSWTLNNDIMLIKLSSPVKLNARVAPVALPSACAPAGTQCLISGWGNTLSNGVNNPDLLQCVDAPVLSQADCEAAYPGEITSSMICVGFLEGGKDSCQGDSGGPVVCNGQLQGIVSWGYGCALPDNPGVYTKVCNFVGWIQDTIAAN

| SMILES | Ki (Serine protease 1) | Ki (Prothrombin) | Ki (Plasminogen) |
| --- | --- | --- | --- |
| N=C(N)c1ccc(CNC(=O)CNC(=O)[C@@H](CO)NS(=O)(=O)Cc2cccc(C(=O)O)c2)cc1 | 0.72 µM |  |  |
| N=C(N)c1ccc(CNC(=O)CNC(=O)[C@@H](CO)NS(=O)(=O)Cc2ccc(CN)cc2)cc1 | 0.28 µM |  |  |
| N=C(N)c1ccc(CNC(=O)CNC(=O)[C@@H](CO)NS(=O)(=O)Cc2ccncc2)cc1 | 0.41 µM | 1.6 µM | 37 µM |

The next compounds have a lower Ki (Serine protease 1) than those just listed; values first:

| Ki (Serine protease 1) | Ki (Prothrombin) | Ki (Plasminogen) | SMILES |
| --- | --- | --- | --- |
| 0.0068 µM |  |  | N=C(N)c1ccc(CNC(=O)[C@H](CCCCN)NC(=O)[C@@H](CO)NS(=O)(=O)Cc2ccccc2)cc1 |
| 0.007 µM |  |  | N=C(N)c1ccc(CNC(=O)[C@H](CCCN=C(N)N)NC(=O)[C@@H](CO)NS(=O)(=O)Cc2ccccc2)cc1 |
